{"source": "patent US9945853B2", "about": "“Extracellular mitochondrial components for detecting inflammatory reactions and conditions” (UNIVERSITE LAVAL, priority 2013, dated 2018)", "molecules": {"B1": {"name": "sPLA2-IIA: human recombinant secreted phospholipase A2 group IIA (protein, UniProt P14555 21-144, looked up)", "Phospholipase A2, membrane …": "NLVNFHRMIKLTTGKEAALSYGFYGCHCGVGGRGSPKDATDRCCVTHDCCYKRLEKRGCGTKFLSYKFSNSGSRITCAKQDSCRSQLCECDKAAATCFARNKTTYNKKYQYYSNKHCRGSTPRC"}}, "key": {"[1]": {"test_system": "thrombin-activated platelets", "test": "Extracellular mitochondria release from thrombin-activated platelets with cytoskeleton inhibitors (hs-FCM)", "type": "cell-based, human", "conditions": "addition of actin or tubulin polymerization inhibitors, n=4", "excerpt": "(§1) A forward scatter (FSC) coupled to a photomultiplier tube (PMT) “small particles option” (FSC-PMT) (rather than the usual diode) with a 488-nm solid state, 100-mW output blue laser (rather than the conventional 20 mW), a 633-nm HeNe, 20-mW output red laser, and a 405-nm solid state diode, 50-mW output violet laser were mounted on the BD FACS Canto II Special Order Research Product used for all our studies (BD Biosciences). The chosen parameters were optimal to detect particles from 100 to 3 500 nm simultaneously on the FSC-PMT.\n(§2) Platelets were labeled with MitoTracker Deep Red™ and PKH67 Green Fluorescent Cell Linker as described above. Platelets were washed and then were left nonactivated or activated using heat-aggregated immunoglobulin (Ig)G (HA-IgG), 1 mg/mL; thrombin, 0.5 U/mL; collagen, 5 μg/mL; for 4 hours at room temperature. Platelets ([…]) were then diluted into […] phosphate-buffered saline (PBS) and analyzed by flow cytometry. For extracellular mitochondria release experiments, platelets were treated with cytochalasin B ([…]; Sigma-Aldrich), cytochalasin D ([…]; Sigma-Aldrich), cytochalasin E ([…]; Cayman Chemical), latrunculin A ([…]; Cayman Chemical), or nocodazole ([…]; Sigma-Aldrich). To process the data quantitatively, 100 000 polystyrene microspheres ([…] diameter; Polysciences) were added to each tube, and 1000 microspheres were acquired."}, "human neutrophils [2]": {"test_system": "human neutrophils", "test": "Stimulation of neutrophils for leukotriene generation (5-LO products, HPLC)", "type": "cell-based", "conditions": "human neutrophils with extracellular mitochondria and sPLA2-IIA; pyrrophenone 100 nM", "method": "Human neutrophils were primed and stimulated for leukotriene biosynthesis as previously described (Cloutier et al. 2013, Flamand et al. 2006). To evaluate sPLA2-IIA mediated release of arachidonic acid, cPLA2α inhibitor pyrrophenone (100 nM) was added 5 min before stimulation. Stimulation was initiated by the addition of 5 μl of pre-treated mitochondria, or control, to prime neutrophils. The reaction was stopped by the addition of 500 μl of cold MeOH:CH3CN (1:1) containing 12.5 ng of prostaglandin B2 as internal standard. Samples were then processed and analyzed by reversed-phase high performance liquid chromatography using on-line extraction as previously described (Borgeat et al. 1990)."}, "human neutrophils [3]": {"test_system": "human neutrophils", "test": "NET quantification", "type": "cell-based", "method": "Activated human neutrophils (5×10^6 cells/ml) were incubated in the presence of labeled mitochondria (5×10^5 mitochondria/ml, MitoTracker® Deep Red, 100 nm) and sPLA2-IIA (0.1 μg/ml) or diluent (PBS) for 2 h at 37° C. Cells were then fixed with 2% PFA and DNA staining was performed with Hoestch 33342 (1 μg/ml, Invitrogen). Cells were cytospinned on a slide at 500 RPM for 3 min. NET formation (%) was determined by the following equation: (NETs/PMN counted)*100. Preliminary experiments confirmed that mtDNA is readily distinguished from neutrophils NETs."}, "platelets": {"test_system": "platelets", "test": "Platelet stimulation and release of freeMitos, mitoMPs and MPs (hs-FCM)", "type": "cell-based, human", "conditions": "platelets stimulated 4 hours at room temperature, vs supernatant from resting platelets, n=4", "excerpt": "as §1, §2"}, "mitochondria [4]": {"test_system": "mitochondria", "test": "sPLA2-IIA binding to mitochondria (flow cytometry, anti-TOM22 co-elution and immunoblot)", "design": "species or system mouse", "conditions": "30 min on ice, 5 mM CaCl2", "method": "Mitochondria (10^6) from mouse liver were labeled with 100 nM of MitoTracker® Deep Red and incubated with 10 ng of sPLA2-IIA Alexa Fluor 488 (final volume 10 μl) in HBSS with 5 mM of CaCl2 for 30 min on ice. Samples were diluted and the presence of sPLA2-IIA Alexa Fluor 488 on fluorescent mitochondria was analyzed by flow cytometry.\nInteraction between mitochondria and sPLA2-IIA was also assessed by immunolabeling and co-elution. Unstained mouse liver mitochondria (10^7) in HBSS with 5 mM CaCl2 were incubated with 250 ng of sPLA2-IIA (final volume 100 μl) for 30 min on ice. Anti-TOM22 microbeads labeling was then performed as described above and processed on a magnet for mitochondria isolation. Mitochondria were then pelleted and lysed in 1× lysis buffer. Samples were electrophoresed, transferred onto membranes and incubated in 0.2% milk/TBS-Tween solution containing rabbit anti-sPLA2-IIA antibody (1/1000, Cayman Chemical) for 48 h at 4° C. The membrane was washed, treated with Peroxidase-AffiniPure anti-rabbit-IgG (Jackson ImmunoResearch) and reactive proteins were visualized by chemiluminescence (Perkin Elmer)."}, "mitochondrial membranes": {"test_system": "mitochondrial membranes", "test": "Mass spectrometry of lysophospholipids and fatty acids released from mitochondrial membranes by sPLA2-IIA", "type": "biochemical, mouse", "conditions": "0.1 and 1 μg/ml sPLA2-IIA, 37° C., 0.5 and 6 h", "method": "Mitochondria were incubated in the presence of 0.1 μg/ml and 1 μg/ml of human recombinant sPLA2-IIA at 37° C. for 0.5 and 6 h. Mitochondria were also incubated in the absence of sPLA2-IIA to determine the content of basal free fatty acid. Following incubation, the reaction was stopped with the addition of 20 mM of EGTA. Lysophospholipid analysis by mass spectrometry was carried out as described (Bollinger et al. 2010). Samples of sPLA2-IIA-treated mitochondria (200 μl) was mixed with 800 μl of chloroform/methanol (2/1) followed by the addition of 15 μl of internal standard mixture (Bollinger et al. 2010 B). Samples were extracted as described and analyzed by combined liquid chromatography/tandem mass spectrometry (Bollinger et al. 2010). Fatty acids were analyzed by conversion to their AMPP amide derivatives and then analyzed by combined liquid chromatography/tandem mass spectrometry."}, "mitochondria [5]": {"test_system": "mitochondria", "test": "Scanning electron microscopy of mitochondria incubated with sPLA2-IIA", "design": "species or system mouse", "conditions": "scanning electron micrographs", "method": "(§3) Samples were fixed with 2.5% glutaraldehyde for at least 24 h then processed for standard dehydration. Briefly, samples were first washed (3×10 min) with sodium cacodylate buffer (0.1 M, pH 7.3) then fixed with osmium tetroxide (1% in sodium cacodylate buffer) for 90 min. Samples were washed again (3×10 min) in sodium cacodylate buffer and subsequently processed for alcohol dehydration steps (50, 70, 95 and 100% EtOH, 10 min each steps). Samples were then dipped in 100% EtOH for 40 and 10 min, and air-dried overnight. Samples were then coated with palladium and observed with a JEOL 6360LV scanning electron microscope (Tokyo, Japan)."}, "mitochondria [6]": {"test_system": "mitochondria", "test": "Mitochondrial DNA release after incubation with sPLA2-IIA (Sytox Green)", "type": "biochemical, mouse", "conditions": "0.2 mg/mL, 30 minutes at 37° C., n=6", "method": "Mitochondria were seeded at 5×10^8 mitochondria/mL (Tyrode Buffer, pH 7.4, +5 mM CaCl2) in a flat bottom well plate (Costar, Corning). Human recombinant sPLA2-IIA (5 μg/ml) or diluent (PBS) was added and samples were then incubated for 30 min at 37° C. Nucleic acid stain Sytox® Green (2.5 μM, Invitrogen) was added to the mix and incubated for 10 min at room temperature. Fluorescence was obtained with a Tecan apparatus. To calculate the percentage of mitochondrial DNA released in the milieu, Triton X-100 (0.1% PBS) lysis of an equivalent amount of mitochondria (5×10^8 mitochondria/ml) was performed, to determine the total amount of mitochondrial DNA present per well."}, "[7]": {"test_system": "freshly isolated human neutrophil", "test": "Scanning electron microscopy of human neutrophils with mitochondria and sPLA2-IIA", "type": "cell-based", "conditions": "mitochondria with human neutrophils, 30-minute incubation with sPLA2-IIA; n=3", "method": "as §3"}, "C57BL/6N mice": {"test_system": "C57BL/6N mice", "test": "Air pouch model, cytokine production", "type": "in vivo, mouse", "conditions": "injected into the air pouch of C57BL/6N mice, 4 hours; n=7", "method": "Briefly, sterile air was subcutaneous injected on days 0 and 3. Tumor necrosis factor-α (50 ng) was injected into the pouch on day 6. On day 7, mitochondrial membrane hydrolysis products ([…] of 5×10^8 mitochondria treated with sPLA2-IIA), diluent (PBS), sPLA2-IIA, or mitochondria alone were injected in the air pouch. After 4 hours, the air pouch was washed with 1.2 mL PBS. Cytokines were quantified using the BD Cytometric Bead Array System (CBA) (BD Biosciences) by flow cytometry on a BD FACS Canto II and analyzed using FCAP Array Software v3.0."}}, "data": [{"molecule": "C=C1[C@@H](C)[C@H]2[C@H](Cc3ccccc3)NC(=O)[C@]23[C@H](OC(C)=O)/C=C/[C@@](C)(O)C(=O)[C@@H](C)C/C=C/[C@H]3[C@@H]1O", "note": "[cytochalasin D]", "values": [{"measurement": "Mitochondrial release (freeMito, mitoMPs, MPs) from thrombin-activated platelets", "setting": "[1]", "value": "significantly reduced"}]}, {"molecule": "O=C1NC(=O)/C(=C/c2ccc(C(=O)NC[C@@H]3C[C@@H](SC(c4ccccc4)(c4ccccc4)c4ccccc4)CN3C(=O)c3ccccc3C(=O)c3ccc(F)cc3F)cc2)S1", "note": "[pyrrophenone]", "values": [{"measurement": "LTB4 production (5-LO products) by neutrophils", "setting": "human neutrophils [2]", "value": "takes place even in presence"}]}, {"molecule": "C[C@H]1C/C=C/[C@H]2[C@@H]3O[C@]3(C)[C@@H](C)[C@H]3[C@H](Cc4ccccc4)NC(=O)[C@]32OC(=O)O/C=C/[C@@](C)(O)C1=O", "note": "[cytochalasin E]", "values": [{"measurement": "Mitochondrial release (freeMito, mitoMPs, MPs) from thrombin-activated platelets", "setting": "[1]", "value": "significantly reduced"}]}, {"molecule": "CCCCC/C=C\\C/C=C\\C/C=C\\C/C=C\\CCCC(=O)O", "note": "[arachidonic acid]", "values": [{"measurement": "inducing NETosis (hydrolytic products derived from sPLA2-IIA activity)", "setting": "human neutrophils [3]; human neutrophils", "value": "highly potent"}]}, {"molecule": "C=C1[C@@H](C)[C@H]2[C@H](Cc3ccccc3)NC(=O)[C@]23OC(=O)/C=C/[C@H](O)CCC[C@@H](C)C/C=C/[C@H]3[C@@H]1O", "note": "[cytochalasin B]", "values": [{"measurement": "Mitochondrial release (freeMito, mitoMPs, MPs) from thrombin-activated platelets", "setting": "[1]", "value": "significantly reduced"}]}, {"molecule": "C/C1=C/C(=O)O[C@@H]2C[C@@H](CC[C@H](C)/C=C\\C=C\\CC1)O[C@@](O)([C@@H]1CSC(=O)N1)C2", "note": "[latrunculin A]", "values": [{"measurement": "Mitochondrial release (freeMito, mitoMPs, MPs) from thrombin-activated platelets", "setting": "[1]", "value": "significantly reduced"}]}, {"molecule": "collagen", "values": [{"measurement": "release of extracellular freeMitos, mitoMPs and MPs", "setting": "platelets", "value": "trigger the release"}]}, {"molecule": "thrombin", "values": [{"measurement": "release of extracellular freeMitos, mitoMPs and MPs", "setting": "platelets", "value": "trigger the release"}]}, {"molecule": "CCCCCCCCCCCCCC(=O)O[C@@H]1[C@@H](C)[C@@]2(O)[C@@H](C=C(CO)C[C@]3(O)C(=O)C(C)=C[C@@H]23)[C@@H]2C(C)(C)[C@]12OC(C)=O", "note": "[PMA, phorbol 12-myristate 13-acetate]", "values": [{"measurement": "release of extracellular freeMitos, mitoMPs and MPs", "setting": "platelets", "value": "trigger the release"}]}, {"molecule": "B1", "values": [{"measurement": "LTB4 production (5-LO products) by neutrophils", "setting": "human neutrophils [2]", "value": "copious amounts"}, {"measurement": "binding of sPLA2-IIA to mitochondria", "setting": "mitochondria [4]", "value": "binds mitochondria"}, {"measurement": "release of lysophospholipids and free fatty acids from mitochondria", "setting": "mitochondrial membranes", "value": "release of various lysophospholipids and free fatty acids"}, {"measurement": "mitochondrial structural integrity", "setting": "mitochondria [5]", "value": "severely affects mitochondrial structural integrity"}, {"measurement": "mtDNA extrusion", "setting": "mitochondria [6]", "value": "amplified"}, {"measurement": "neutrophil structural change", "setting": "[7]", "value": "29.2±2.11", "unit": "%"}, {"measurement": "NET formation by mitochondria", "setting": "human neutrophils [3]; human neutrophils with mitochondria, sPLA2-IIA 0.1 μg/ml, 2 h at 37° C.", "value": "significantly enhances"}, {"measurement": "production of IL-1b and IL-6", "setting": "C57BL/6N mice", "value": "modest cytokine production"}]}]}
